Reference: PubChem BioAssay AID1963437 (Molecular Pharmacology Branch, DTP, NCI, 2024)

System: OVCAR-8 complex spheroid, growth inhibition
Assay: Anticancer human tumor OVCAR-8 cell line growth inhibition [Asc];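 also: spheroids exposed to agents for 7 days before readout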;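 as to viability, T/C: percent viability relative to DMSO vehicle wells taken as 100%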
Conditions: for IC50: curve of first compound; for viability, T/C: stronger effect = lower value
Method: Multicellular complex tumor spheroid response to apoptosis pathway targeting inhibitors Alrizomadlin, Pelcitoclax, and Dasminapant in combination with a variety of drugs and investigational agents in selected tumor cell lines
The MDM2 inhibitor alrizomadlin, the Bcl-2/Bcl-xL inhibitor pelcitoclax, and the IAPs inhibitor dasminapant were evaluated both individually and in combination with standard of care and investigational anticancer small molecules within a complex spheroid model of solid tumors. . Complex spheroids include a stromal component modeled by human endothelial cells (HUVEC) and fibroblasts modeled by human mesenchymal stem cells (MSCs). The concentration ranges selected for each drug and investigational agent were based upon clinically achievable concentrations if the clinical Cmax of the agent was known.
Compounds. The drugs and investigational agents: alrizomadlin (APG-115; NSC831270), pelcitoclax (APG-1252; NSC835773), dasminapant (APG-1387;NSC834197), TAK-243 (NSC785004), copanlisib (NSC809693), olaparib (NSC753686), talazoparib (NSC767125), cobimetinib (NSC 768068), eltanexor (KPT-8602, NSC 794443), abemaciclib (NSC 768073), sotorasib (NSC818433), adagrasib (NSC 831453), MRTX-1133 (NSC 836407), Iadademestat (ORY1001, NSC 806812), and RMC-4630 (NSC839698), were obtained from the NCI Developmental Therapeutics Program Chemical Repository. The FDA-approved anticancer drug set is available from the Developmental Therapeutics Program at https://dtp.cancer.gov/organization/dscb/obtaining/available plates.htm. […] The stock solutions were prepared in dimethyl sulfoxide (DMSO, Sigma-Aldrich, St. Louis, MO, cat. D2650) at 800-fold the tested concentration and stored at -70 degrees C prior to their use. All drugs and investigational agents were tested over a range starting from a high concentration at or near the clinical Cmax and decreasing in half-log increments. If the clinical Cmax for an agent had not been determined, the highest concentration tested was 10 microM.
The patient-derived cancer (PDC) cell lines include five colon adenocarcinomas: 186277-243-T-J2-PDC, 616215-338-R-J1-PDC, 439559-082-T-J2-PDC, 463943-066-T-J2-PDC, and 519858-162-T-J1-PDC; three pancreatic carcinomas: 323965-272-R-J2-PDC, 521955-158-R6-J3-PDC, and 521955-158-R2-J5-PDC; two uterine sarcomas: 327498-152-R-J2-PDC and 993429-296-R-J1-PDC; two rhabdomyosarcomas: 755483-174-R-J1-PDC and 772245-204-R-J1-PDC; two soft tissue sarcomas: 126254-015-R-J1-PDC and 494315-158-R-J1-PDC; two malignant fibrous histiocytomas: 317291-083-R-J1-PDC and 596521-263-R-J1-PDC; two breast carcinomas: 171881-019-R-J1-PDC and 885512-296-R-J2-PDC; and one ovarian carcinoma: 6556581-035-R-J-PDC were obtained from the NCI PDMR, (https://pdmr.cancer.gov). The established cell lines HSSY-2 synovial sarcoma (RRID:CVCL 8719), SYO-1 synovial sarcoma (RRID:CVCL_7146), MPNST malignant peripheral neural sheath tumor were obtained from the Sloan Kettering Institute. The following established cell lines were purchased from the American Type Culture Collection (ATCC, Manassas, VA), Sor the received from the NCI repository:, PANC-1 pancreatic carcinoma (CRL-1469, RRID:CVCL_0480), OVCAR-5 ovarian carcinoma (RRID:CVCL_1628), OVCAR-8 ovarian carcinoma (RRID:CVCL_1629), , MCF-7 breast carcinoma (CRL-12584, RRID:CVCL_0031), MDA-MB-231 breast carcinoma (CRL-12532, RRID:CVCL_0062), NCI-H1876 small cell lung carcinoma (CRL-5902, RRID:CVCL_1503), NCI-H510A small cell lung carcinoma (HTB-184, RRID:CVCL_1565), NCI-H1417 (CRL-5869, RRID:CVCL_1469), and NCI-H196 small cell lung carcinoma (CRL-5823, RRID:CVCL_1509). Dr. Peter Houghton (Greehey Children's Cancer Research Institute, University of Texas Health Science Center, San Antonio, TX) provided Rh-18 rhabdomyosarcoma (RRID:CVCL_1659). Pooled donor human umbilical vein endothelial cells (HUVEC, Lonza, cat. CC-2519) and human mesenchymal stem cells (hMSC, Lonza, cat. PT-2501) were purchased from Lonza (Walkersville, MD).
Cell Culture. […]

CNC(C)C(=O)NC1CN(S(=O)(=O)c2cccc(S(=O)(=O)N3CCC4CCC(C(=O)NC(c5ccccc5)c5ccccc5)N4C(=O)C(NC(=O)C(C)NC)C3)c2)CCC2CCC(C(=O)NC(c3ccccc3)c3ccccc3)N2C1=O (configuration not stated) + CCN1C(C(=O)NC23CCC(C(=O)O)(CC2)CC3)C(c2cccc(Cl)c2F)C2(C(=O)Nc3cc(Cl)ccc32)C12CCCCC2
IC50 (second compound 0.00949 µM): > 1000 nM | IC50 (second compound 0.03 µM): > 1000 nM | IC50 (second compound 0.0949 µM): > 1000 nM | IC50 (second compound 0.3 µM): > 1000 nM | IC50 (second compound 0.949 µM): > 1000 nM | IC50 (second compound 3 µM): > 1000 nM | viability, T/C (second compound 0.00949 µM, first compound 0.00316 µM): 100% | viability, T/C (second compound 0.00949 µM, first compound 0.01 µM): 83.8% | viability, T/C (second compound 0.00949 µM, first compound 0.0316 µM): 91.8% | viability, T/C (second compound 0.00949 µM, first compound 0.1 µM): 76.4% | viability, T/C (second compound 0.00949 µM, first compound 0.316 µM): 75.4% | viability, T/C (second compound 0.00949 µM, first compound 1 µM): 71.3% | viability, T/C (second compound 0.03 µM, first compound 0.00316 µM): 107% | viability, T/C (second compound 0.03 µM, first compound 0.01 µM): 99.3% | viability, T/C (second compound 0.03 µM, first compound 0.0316 µM): 94% | viability, T/C (second compound 0.03 µM, first compound 0.1 µM): 88.8% | viability, T/C (second compound 0.03 µM, first compound 0.316 µM): 75% | viability, T/C (second compound 0.03 µM, first compound 1 µM): 83.3% | viability, T/C (second compound 0.0949 µM, first compound 0.00316 µM): 94.7% | viability, T/C (second compound 0.0949 µM, first compound 0.01 µM): 98.1% | viability, T/C (second compound 0.0949 µM, first compound 0.0316 µM): 90.9% | viability, T/C (second compound 0.0949 µM, first compound 0.1 µM): 79% | viability, T/C (second compound 0.0949 µM, first compound 0.316 µM): 74.4% | viability, T/C (second compound 0.0949 µM, first compound 1 µM): 63.6% | viability, T/C (second compound 0.3 µM, first compound 0.00316 µM): 112% | viability, T/C (second compound 0.3 µM, first compound 0.01 µM): 101% | viability, T/C (second compound 0.3 µM, first compound 0.0316 µM): 86.7% | viability, T/C (second compound 0.3 µM, first compound 0.1 µM): 65.9% | viability, T/C (second compound 0.3 µM, first compound 0.316 µM): 68.6% | viability, T/C (second compound 0.3 µM, first compound 1 µM): 70.1% | viability, T/C (second compound 0.949 µM, first compound 0.00316 µM): 91.7% | viability, T/C (second compound 0.949 µM, first compound 0.01 µM): 89.1% | viability, T/C (second compound 0.949 µM, first compound 0.0316 µM): 99% | viability, T/C (second compound 0.949 µM, first compound 0.1 µM): 76.7% | viability, T/C (second compound 0.949 µM, first compound 0.316 µM): 64.3% | viability, T/C (second compound 0.949 µM, first compound 1 µM): 66.8% | viability, T/C (second compound 3 µM, first compound 0.00316 µM): 118% | viability, T/C (second compound 3 µM, first compound 0.01 µM): 102% | viability, T/C (second compound 3 µM, first compound 0.0316 µM): 115% | viability, T/C (second compound 3 µM, first compound 0.1 µM): 88% | viability, T/C (second compound 3 µM, first compound 0.316 µM): 84.5% | viability, T/C (second compound 3 µM, first compound 1 µM): 88%
